According to ChEMBL document CHEMBL6074715, “Discovery of pyridine-based derivatives as FLT3 inhibitors for the treatment of acute myeloid leukemia” (Eur J Med Chem, 2025):
The source made the active and inactive calls. The rule behind the calls is not given here.

Key:
[1] = Cmax in Sprague-Dawley rat at 5 mg/kg, iv measured upto 48 hrs by LC-MS/MS analysis; type: ADME, organism-based; conditions: in vivo
[2] = AUC (0 to infinity) in Sprague-Dawley rat at 5 mg/kg, iv measured upto 48 hrs by LC-MS/MS analysis; type: ADME, organism-based; conditions: in vivo
Jurkat = assay: Antiproliferative activity against human Jurkat cells assessed as inhibition of cell growth measured after 72 hrs by Celltiter-glo luminescent cell viability assay; type: functional, cell-based
OE33 = assay: Antiproliferative activity against human OE33 cells assessed as inhibition of cell growth measured after 72 hrs by Celltiter-glo luminescent cell viability assay; type: functional, cell-based; conditions: OE33, 72 h
MOLM-13 [3] = assay: Induction of cell cycle arrest in human MOLM-13 cells assessed as accumulation of cells at S phase at 1 uM measured after 48 hrs by PI staining based flow cytometry analysis (reference value: 45.3%); type: functional
MOLM-13 [4] = assay: Induction of cell cycle arrest in human MOLM-13 cells assessed as accumulation of cells at S phase at 0.3 uM measured after 48 hrs by PI staining based flow cytometry analysis (reference value: 45.3%); type: functional
MOLM-13 [5] = assay: Induction of cell cycle arrest in human MOLM-13 cells assessed as accumulation of cells at G1 phase at 0.3 uM measured after 48 hrs by PI staining based flow cytometry analysis (reference value: 42.8%); type: functional
MOLM-13 [6] = assay: Induction of cell cycle arrest in human MOLM-13 cells assessed as accumulation of cells at G1 phase at 1 uM measured after 48 hrs by PI staining based flow cytometry analysis (reference value: 42.8%); type: functional
MOLM-13 [7] = assay: Induction of cell cycle arrest in human MOLM-13 cells assessed as accumulation of cells at G2 phase at 1 uM measured after 48 hrs by PI staining based flow cytometry analysis (reference value: 12.5%); type: functional
MOLM-13 [8] = assay: Induction of apoptosis in human MOLM-13 cells assessed as viable cells at 3 uM measured after 48 hrs by annexin-V and PI staining based flow cytometry analysis (reference value: 88.7%); type: functional; conditions: read-out: Activity
MOLM-13 [9] = assay: Induction of apoptosis in human MOLM-13 cells assessed as late apoptotic cells at 0.3 uM measured after 48 hrs by annexin-V and PI staining based flow cytometry analysis (reference value: 2.28%); type: functional
[10] = Half life in Sprague-Dawley rat at 5 mg/kg, iv measured upto 48 hrs by LC-MS/MS analysis; type: ADME, organism-based; conditions: in vivo
[11] = MRT (0 to t) in Sprague-Dawley rat at 5 mg/kg, iv measured upto 48 hrs by LC-MS/MS analysis; type: ADME, organism-based; conditions: in vivo
[12] = Half life in Sprague-Dawley rat at 20 mg/kg, po measured upto 48 hrs by LC-MS/MS analysis; type: ADME, organism-based; conditions: in vivo
[13] = Cmax in Sprague-Dawley rat at 20 mg/kg, po measured upto 48 hrs by LC-MS/MS analysis; type: ADME, organism-based; conditions: in vivo
[14] = Tmax in Sprague-Dawley rat at 20 mg/kg, po measured upto 48 hrs by LC-MS/MS analysis; type: ADME, organism-based; conditions: in vivo
[15] = AUC (0 to t) in Sprague-Dawley rat at 20 mg/kg, po measured upto 48 hrs by LC-MS/MS analysis; type: ADME, organism-based; conditions: in vivo
[16] = Oral bioavailability in Sprague-Dawley rat at 20 mg/kg measured upto 48 hrs by LC-MS/MS analysis; type: ADME, organism-based; conditions: in vivo
[17] = Toxicity in female NSG mouse assessed as effect on body weight loss at 20 to 40 mg/kg, po measured after 21 days; type: organism-based; conditions: in vivo, 504 h, dose 20-40 mg/kg, time 21 day
[18] = Toxicity in female NSG mouse assessed as effect on spleen at 20 to 40 mg/kg, po measured after 21 days by H and E staining based analysis; type: organism-based; conditions: in vivo, 504 h, dose 20-40 mg/kg, time 21 day
[19] = target: ALK tyrosine kinase receptor (Homo sapiens) (UniProt Q9UM73); assay: Inhibition of human ALK at 1 uM by Eurofins kinase assay
[20] = target: Aurora kinase B (Homo sapiens) (UniProt Q96GD4); assay: Inhibition of human AuroraB at 1 uM by Eurofins kinase assay
Homo sapiens [21] = species: Homo sapiens; assay: Inhibition of human CDK1/cyclinB at 1 uM by Eurofins kinase assay
[22] = target: Death-associated protein kinase 1 (Homo sapiens) (UniProt P53355); assay: Inhibition of human DAPK1 at 1 uM by Eurofins kinase assay
Homo sapiens [23] = species: Homo sapiens; assay: Inhibition of human DNA-PK at 1 uM by Eurofins kinase assay
[24] = target: Epidermal growth factor receptor (Homo sapiens) (UniProt P00533); assay: Inhibition of human EGFR at 1 uM by Eurofins kinase assay
[25] = target: Fibroblast growth factor receptor 1 (Homo sapiens) (UniProt P11362); assay: Inhibition of human FGFR1 at 1 uM by Eurofins kinase assay
[26] = target: Receptor-type tyrosine-protein kinase FLT3 (Homo sapiens) (UniProt P36888); assay: Inhibition of human FLT3 at 1 uM by Eurofins kinase assay
[27] = tested on: Receptor-type tyrosine-protein kinase FLT3 (Homo sapiens), P36888 [UNDEFINED MUTATION]; assay: Inhibition of human FLT3-ITD at 1 uM by Eurofins kinase assay
[28] = target: Insulin-like growth factor 1 receptor (Homo sapiens) (UniProt P08069); assay: Inhibition of human IGF-1R at 1 uM by Eurofins kinase assay
[29] = target: Inhibitor of nuclear factor kappa-B kinase subunit beta (Homo sapiens) (UniProt O14920); assay: Inhibition of human IKKB at 1 uM by Eurofins kinase assay
Sequence of Inhibitor of nuclear factor kappa-B kinase subunit beta (Homo sapiens) (O14920 whole entry): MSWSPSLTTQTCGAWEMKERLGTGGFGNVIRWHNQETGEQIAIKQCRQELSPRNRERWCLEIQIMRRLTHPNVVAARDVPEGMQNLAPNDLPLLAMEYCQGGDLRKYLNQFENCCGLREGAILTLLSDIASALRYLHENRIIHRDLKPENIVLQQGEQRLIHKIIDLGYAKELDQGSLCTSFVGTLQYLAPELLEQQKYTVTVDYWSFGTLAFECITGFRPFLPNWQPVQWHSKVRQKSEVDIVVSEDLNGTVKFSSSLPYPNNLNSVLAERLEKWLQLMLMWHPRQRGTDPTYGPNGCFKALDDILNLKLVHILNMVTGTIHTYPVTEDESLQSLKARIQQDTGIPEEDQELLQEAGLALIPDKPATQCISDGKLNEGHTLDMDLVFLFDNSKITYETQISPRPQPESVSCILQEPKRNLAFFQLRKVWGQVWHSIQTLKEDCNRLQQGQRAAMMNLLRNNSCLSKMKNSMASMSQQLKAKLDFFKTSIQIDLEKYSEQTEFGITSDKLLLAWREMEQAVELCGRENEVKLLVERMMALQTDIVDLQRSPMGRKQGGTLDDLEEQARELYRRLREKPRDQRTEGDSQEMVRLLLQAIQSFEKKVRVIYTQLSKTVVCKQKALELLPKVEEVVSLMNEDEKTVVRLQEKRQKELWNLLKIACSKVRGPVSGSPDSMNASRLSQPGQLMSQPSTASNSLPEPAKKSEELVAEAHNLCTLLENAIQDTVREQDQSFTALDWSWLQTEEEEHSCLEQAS

[30] = target: Tyrosine-protein kinase JAK2 (Homo sapiens) (UniProt O60674); assay: Inhibition of human JAK2 at 1 uM by Eurofins kinase assay
[31] = target: Vascular endothelial growth factor receptor 2 (Homo sapiens, UniProt P35968); assay: Inhibition of human KDR at 1 uM by Eurofins kinase assay
Sequence of Vascular endothelial growth factor receptor 2 (P35968 whole entry): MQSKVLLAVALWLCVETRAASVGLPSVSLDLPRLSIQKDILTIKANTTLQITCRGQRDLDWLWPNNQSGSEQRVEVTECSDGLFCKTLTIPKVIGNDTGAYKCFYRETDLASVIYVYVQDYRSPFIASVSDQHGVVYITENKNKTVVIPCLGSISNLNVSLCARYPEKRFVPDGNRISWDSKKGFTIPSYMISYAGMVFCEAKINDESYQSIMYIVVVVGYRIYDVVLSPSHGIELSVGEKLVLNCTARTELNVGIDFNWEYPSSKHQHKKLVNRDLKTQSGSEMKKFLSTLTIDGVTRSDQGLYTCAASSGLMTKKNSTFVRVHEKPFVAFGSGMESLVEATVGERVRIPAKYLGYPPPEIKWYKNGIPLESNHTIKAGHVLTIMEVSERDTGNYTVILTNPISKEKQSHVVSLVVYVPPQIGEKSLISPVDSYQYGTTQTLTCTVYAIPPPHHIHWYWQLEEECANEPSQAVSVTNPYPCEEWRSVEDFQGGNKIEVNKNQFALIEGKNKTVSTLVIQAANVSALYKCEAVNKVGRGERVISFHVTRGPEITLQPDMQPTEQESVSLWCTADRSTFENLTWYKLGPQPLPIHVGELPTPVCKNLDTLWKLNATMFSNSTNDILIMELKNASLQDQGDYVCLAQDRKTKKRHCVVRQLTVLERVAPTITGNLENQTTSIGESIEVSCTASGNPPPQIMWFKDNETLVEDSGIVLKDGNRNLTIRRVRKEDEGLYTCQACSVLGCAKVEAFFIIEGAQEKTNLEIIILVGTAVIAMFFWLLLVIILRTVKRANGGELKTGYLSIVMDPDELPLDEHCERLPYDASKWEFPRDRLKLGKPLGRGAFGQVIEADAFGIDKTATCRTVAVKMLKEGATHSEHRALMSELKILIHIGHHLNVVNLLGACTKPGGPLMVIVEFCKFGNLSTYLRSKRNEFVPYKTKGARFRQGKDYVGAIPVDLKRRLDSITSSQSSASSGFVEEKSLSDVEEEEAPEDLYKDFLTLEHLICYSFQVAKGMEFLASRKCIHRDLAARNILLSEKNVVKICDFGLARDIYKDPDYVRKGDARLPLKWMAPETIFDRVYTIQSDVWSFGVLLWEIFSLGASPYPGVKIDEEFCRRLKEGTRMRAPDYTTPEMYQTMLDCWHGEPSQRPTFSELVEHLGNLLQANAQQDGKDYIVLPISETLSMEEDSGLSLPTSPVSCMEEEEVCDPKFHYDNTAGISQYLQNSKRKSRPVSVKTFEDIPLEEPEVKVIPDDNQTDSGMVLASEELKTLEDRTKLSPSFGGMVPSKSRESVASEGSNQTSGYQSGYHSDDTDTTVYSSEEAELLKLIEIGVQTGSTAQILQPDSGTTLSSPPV

[32] = target: Mitogen-activated protein kinase kinase kinase 1 (Homo sapiens) (UniProt Q13233); assay: Inhibition of human MEKK1 at 1 uM by Eurofins kinase assay
[33] = target: Mitogen-activated protein kinase 1 (Homo sapiens) (UniProt P28482); assay: Inhibition of human MAPK1 at 1 uM by Eurofins kinase assay
Sequence of Mitogen-activated protein kinase 1 (Homo sapiens) (P28482 whole entry): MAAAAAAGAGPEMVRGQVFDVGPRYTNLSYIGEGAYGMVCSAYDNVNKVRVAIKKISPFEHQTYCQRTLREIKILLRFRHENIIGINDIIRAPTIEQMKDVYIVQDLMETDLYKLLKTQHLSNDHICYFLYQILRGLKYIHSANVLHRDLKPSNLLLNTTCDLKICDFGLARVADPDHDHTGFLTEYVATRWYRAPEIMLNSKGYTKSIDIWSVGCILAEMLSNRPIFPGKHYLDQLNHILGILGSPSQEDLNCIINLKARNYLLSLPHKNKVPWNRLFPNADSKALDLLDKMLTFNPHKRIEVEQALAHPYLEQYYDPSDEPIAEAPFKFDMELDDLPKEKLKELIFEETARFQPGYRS

[34] = target: Platelet-derived growth factor receptor alpha (Homo sapiens) (UniProt P16234); assay: Inhibition of human PDGFRalpha at 1 uM by Eurofins kinase assay
[35] = target: Serine/threonine-protein kinase PAK 4 (Homo sapiens) (UniProt O96013); assay: Inhibition of human PAK4 at 1 uM by Eurofins kinase assay
Sequence of Serine/threonine-protein kinase PAK 4 (Homo sapiens) (O96013 whole entry, looked up): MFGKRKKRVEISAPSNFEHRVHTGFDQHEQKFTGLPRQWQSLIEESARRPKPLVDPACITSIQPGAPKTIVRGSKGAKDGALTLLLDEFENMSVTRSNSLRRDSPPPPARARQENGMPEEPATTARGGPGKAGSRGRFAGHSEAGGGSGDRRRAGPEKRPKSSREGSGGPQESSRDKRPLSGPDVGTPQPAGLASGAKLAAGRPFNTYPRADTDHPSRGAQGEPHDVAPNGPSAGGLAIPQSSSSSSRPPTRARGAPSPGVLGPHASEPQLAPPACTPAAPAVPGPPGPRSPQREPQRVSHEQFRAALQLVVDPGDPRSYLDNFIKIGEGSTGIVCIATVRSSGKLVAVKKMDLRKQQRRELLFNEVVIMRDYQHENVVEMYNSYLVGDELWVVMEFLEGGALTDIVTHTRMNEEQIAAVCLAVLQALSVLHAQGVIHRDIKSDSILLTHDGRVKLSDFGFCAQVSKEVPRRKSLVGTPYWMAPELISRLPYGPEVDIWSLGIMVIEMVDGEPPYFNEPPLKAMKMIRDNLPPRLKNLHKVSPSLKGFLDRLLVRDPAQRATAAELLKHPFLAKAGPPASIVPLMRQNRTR

[36] = target: High affinity nerve growth factor receptor (Homo sapiens) (UniProt P04629); assay: Inhibition of human TrkA at 1 uM by Eurofins kinase assay
[37] = target: Non-receptor tyrosine-protein kinase TYK2 (Homo sapiens) (UniProt P29597); assay: Inhibition of human TYK2 at 1 uM by Eurofins kinase assay
Sequence of Non-receptor tyrosine-protein kinase TYK2 (Homo sapiens) (P29597 whole entry): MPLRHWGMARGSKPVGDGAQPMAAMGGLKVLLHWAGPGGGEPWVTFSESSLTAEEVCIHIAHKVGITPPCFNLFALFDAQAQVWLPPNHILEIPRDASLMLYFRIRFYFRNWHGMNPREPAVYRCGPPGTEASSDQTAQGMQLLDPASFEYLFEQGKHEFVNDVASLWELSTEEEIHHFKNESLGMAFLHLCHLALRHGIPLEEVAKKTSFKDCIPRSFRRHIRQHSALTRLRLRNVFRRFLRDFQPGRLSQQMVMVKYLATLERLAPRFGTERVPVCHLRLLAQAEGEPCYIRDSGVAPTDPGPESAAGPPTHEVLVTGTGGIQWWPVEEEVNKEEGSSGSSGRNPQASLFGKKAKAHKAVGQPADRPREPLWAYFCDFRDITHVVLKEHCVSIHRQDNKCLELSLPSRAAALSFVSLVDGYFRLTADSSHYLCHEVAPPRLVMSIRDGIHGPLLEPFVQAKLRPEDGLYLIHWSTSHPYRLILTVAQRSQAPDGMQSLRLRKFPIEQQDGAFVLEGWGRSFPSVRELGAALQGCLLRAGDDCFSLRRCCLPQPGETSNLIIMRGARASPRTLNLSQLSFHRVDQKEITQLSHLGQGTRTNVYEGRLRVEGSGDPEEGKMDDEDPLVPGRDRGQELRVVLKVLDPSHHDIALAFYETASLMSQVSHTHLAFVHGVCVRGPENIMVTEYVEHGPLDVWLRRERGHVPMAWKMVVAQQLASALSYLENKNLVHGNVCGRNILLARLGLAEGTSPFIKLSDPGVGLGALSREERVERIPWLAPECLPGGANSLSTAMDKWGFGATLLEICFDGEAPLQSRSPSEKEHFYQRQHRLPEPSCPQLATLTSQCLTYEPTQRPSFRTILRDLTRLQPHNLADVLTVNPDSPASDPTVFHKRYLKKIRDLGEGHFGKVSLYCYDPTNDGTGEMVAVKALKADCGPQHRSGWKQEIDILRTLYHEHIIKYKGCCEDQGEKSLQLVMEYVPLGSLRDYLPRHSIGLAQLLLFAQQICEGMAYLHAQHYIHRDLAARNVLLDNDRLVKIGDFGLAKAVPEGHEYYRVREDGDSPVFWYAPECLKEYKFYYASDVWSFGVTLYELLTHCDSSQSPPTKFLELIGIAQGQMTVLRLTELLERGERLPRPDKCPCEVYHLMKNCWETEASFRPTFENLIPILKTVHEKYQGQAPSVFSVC

[38] = target: Tyrosine-protein kinase ZAP-70 (Homo sapiens) (UniProt P43403); assay: Inhibition of human ZAP-70 at 1 uM by Eurofins kinase assay
Sequence of Tyrosine-protein kinase ZAP-70 (Homo sapiens) (P43403 whole entry): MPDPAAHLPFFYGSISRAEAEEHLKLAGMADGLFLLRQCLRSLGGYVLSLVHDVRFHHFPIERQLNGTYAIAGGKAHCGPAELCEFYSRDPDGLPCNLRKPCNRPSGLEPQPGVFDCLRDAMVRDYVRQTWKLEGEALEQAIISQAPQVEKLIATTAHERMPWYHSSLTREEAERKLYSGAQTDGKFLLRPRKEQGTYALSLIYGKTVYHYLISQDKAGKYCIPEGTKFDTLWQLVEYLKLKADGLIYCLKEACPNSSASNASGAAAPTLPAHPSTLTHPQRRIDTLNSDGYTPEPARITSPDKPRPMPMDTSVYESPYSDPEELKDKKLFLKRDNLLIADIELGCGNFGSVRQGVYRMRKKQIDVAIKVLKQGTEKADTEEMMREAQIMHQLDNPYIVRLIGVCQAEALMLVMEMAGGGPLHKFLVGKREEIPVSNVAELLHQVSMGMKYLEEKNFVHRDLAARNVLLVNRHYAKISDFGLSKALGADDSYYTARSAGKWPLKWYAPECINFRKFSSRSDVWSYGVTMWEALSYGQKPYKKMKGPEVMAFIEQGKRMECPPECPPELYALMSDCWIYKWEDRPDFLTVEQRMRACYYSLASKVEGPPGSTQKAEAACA

Q: With `O=C(Nc1ccc(Oc2ccnc(NC(=O)N3CC(O)C3)c2)c(F)c1)c1cn(-c2cccnc2)nn1` as the compound, how does the Cmax [1] read?
A: 26900 ng/mL

Q: What about the AUC(0-inf) [2] of the same compound?
A: 59400 ng·h/mL

Q: And the IC50 (Jurkat)?
A: > 30 µM

Q: And the IC50 (OE33)?
A: > 30 µM

Q: What about the Activity (MOLM-13 [3]) of the same compound?
A: 3.57%

Q: What about the Activity (MOLM-13 [4]) of the same compound?
A: 14%

Q: And the Activity (MOLM-13 [5])?
A: 79.4%

Q: What about the Activity (MOLM-13 [6]) of the same compound?
A: 87.7%

Q: What about the Activity (MOLM-13 [7]) of the same compound?
A: 4.33%

Q: And the viability at 3 µM (MOLM-13 [8])?
A: 50.6%

Q: And the Activity (MOLM-13 [9])?
A: 6.54%

Q: And the half-life [10]?
A: 2.46 h

Q: What about the MRT last at 48 h [11] of the same compound?
A: 3.01 h

Q: What about the half-life [12] of the same compound?
A: 3.57 h

Q: And the Cmax [13]?
A: 8020 ng/mL

Q: What about the Tmax [14] of the same compound?
A: 1.83 h

Q: What about the AUC(0-t) at 48 h [15] of the same compound?
A: 45600 ng·h/mL

Q: What about the bioavailability [16] of the same compound?
A: 19.2%

Q: And the Activity [17]?
A: Non-toxic

Q: What about the Activity [18] of the same compound?
A: Non-toxic

Q: What about the inhibition [19] of the same compound?
A: inactive

Q: And the inhibition [20]?
A: inactive

Q: And the inhibition (Homo sapiens [21])?
A: inactive

Q: And the inhibition [22]?
A: inactive

Q: What about the inhibition (Homo sapiens [23]) of the same compound?
A: inactive

Q: And the inhibition [24]?
A: inactive

Q: What about the inhibition [25] of the same compound?
A: inactive

Q: What about the inhibition [26] of the same compound?
A: inactive

Q: What about the inhibition [27] of the same compound?
A: inactive

Q: And the inhibition [28]?
A: inactive

Q: What about the inhibition [29] of the same compound?
A: inactive

Q: What about the inhibition [30] of the same compound?
A: inactive

Q: And the inhibition [31]?
A: inactive

Q: And the inhibition [32]?
A: inactive

Q: And the inhibition [33]?
A: inactive

Q: And the inhibition [34]?
A: inactive

Q: And the inhibition [35]?
A: inactive

Q: What about the inhibition [36] of the same compound?
A: inactive

Q: What about the inhibition [37] of the same compound?
A: inactive

Q: What about the inhibition [38] of the same compound?
A: inactive
